This passage reports IC50 results from patent US20260207565A1, “COMPOUNDS THAT INHIBIT PKMYT1” (Exelixis, Inc., priority 2022, published 2026).

In assay [1] the target is T1, PKMYT1 (Homo sapiens, UniProt Q99640).
T1 construct: PKMYT1 (93 kD, full length, N-terminal GST tag from Signal Chem); GST (N); purchased Signal Chem
T1 sequence (Q99640 1-499): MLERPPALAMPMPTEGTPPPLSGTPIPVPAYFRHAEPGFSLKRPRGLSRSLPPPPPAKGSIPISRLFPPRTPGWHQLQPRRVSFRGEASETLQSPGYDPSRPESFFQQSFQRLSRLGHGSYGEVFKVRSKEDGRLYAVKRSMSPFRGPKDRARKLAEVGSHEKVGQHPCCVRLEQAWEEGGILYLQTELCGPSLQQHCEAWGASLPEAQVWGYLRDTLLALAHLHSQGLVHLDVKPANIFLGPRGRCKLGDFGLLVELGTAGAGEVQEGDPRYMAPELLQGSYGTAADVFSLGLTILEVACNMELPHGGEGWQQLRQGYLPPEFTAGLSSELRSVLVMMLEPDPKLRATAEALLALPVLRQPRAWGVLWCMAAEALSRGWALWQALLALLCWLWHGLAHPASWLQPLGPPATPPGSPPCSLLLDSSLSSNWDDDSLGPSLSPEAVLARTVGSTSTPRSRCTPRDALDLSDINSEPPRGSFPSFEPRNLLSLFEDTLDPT
Briefly: ADP-Glo PKMYT1 ATP-depletion assay. The settings on record: 50 nM PKMYT1, 13.3 nM CDK1, 88 μM ATP, 120 minutes at RT, read-out: Biochemical IC50. In a few lines:
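Full-length N-GST PKMYT1 (50 nM) incubated 120 min at RT with full-length GST-CDK1 (13.3 nM) and 88 μM ATP in Hepes buffer containing Mg2+, Mn2+, DTT and BSA; DMSO <10%. ADP formed was converted via ADP-Glo to luminescence; IC50 derived.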
Background: In ADP-Glo the light output rises with the ADP produced.

For assay [2], the system named is phosphorylation of CDK1 at Thr14 in HCC1806 cells. The assay is described as follows: Cell lysate AlphaLISA assay measuring inhibition of phosphorylation of CDK1 Thr14. It counts as cell-based. The settings on record: Homo sapiens, HCC1806, 4 h, compounds incubated 4 hours, AlphaLISA SureFire Ultra CDK1 Thr14, read-out: Cellular IC50. A digest of the protocol:
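HCC1806 cells treated with compound for 4 h at 37 °C, lysed, and phospho-CDK1 Thr14 quantified by AlphaLISA SureFire Ultra. Data normalized to DMSO (0% inhibition) and 3 μM reference compound; IC50 derived.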
For orientation: Bead proximity is the source of the signal in Alpha formats.

With `CCn1cc(C#N)c2c(-c3cccc(O)c3C)c(N)c(C(N)=O)nc21` (atropisomer, axis not shown; (M)) [Compound 92, (M)-5-amino-3-cyano-1-ethyl-4-(3-hydroxy-2-methylphenyl)-1H-pyrrolo[2,3-b]pyridine-6-carboxamide], the IC50 in assay [1] and in assay [2] was less than 50 nM each time.
As for `Cc1ccc(O)c(C)c1-c1cc(C(N)=O)nc2cnn(C)c12` [Compound 18, 7-(3-hydroxy-2,6-dimethylphenyl)-1-methyl-pyrazolo[4,3-b]pyridine-5-carboxamide], the IC50 (commonly the concentration that inhibits the measured activity by half) in assay [1] is 1000 to 5000 nM; in assay [2] it was not below 5000 nM.
Regarding `Cc1ccc(O)c(C)c1-c1c(N)c(C(N)=O)cc2c1nnn2C(F)F` (atropisomer, axis not shown; (P)) [Compound 98, (P)-5-amino-1-(difluoromethyl)-4-(3-hydroxy-2,6-dimethylphenyl)-1H-benzo[d][1,2,3]triazole-6-carboxamide], the IC50 in assay [1] and in assay [2] was less than 50 nM throughout.
As for `Cc1ccc(O)c(C)c1-c1cc(C(=O)N(C)C)nc2cn[nH]c12` [Compound 20], the half-maximal inhibitory concentration (IC50) in assay [1] and in assay [2] was not below 5000 nM in each case.
As for `COc1c(F)cncc1-c1c(N)c(C(N)=O)nc2c1c(C#N)cn2C` [Compound 67, 5-Amino-3-cyano-4-(5-fluoro-4-methoxypyridin-3-yl)-1-methyl-1H-pyrrolo[2,3-b]pyridine-6-carboxamide], the IC50 in assay [1] and in assay [2] was less than 50 nM in each case.
